Assay [1] has as its system HEK293 cells. The assay can be described thus: 6MP cytotoxicity / drug resistance in transfected HEK293 cells. The format is cell-based, Human. The conditions noted are these: for IC50: Homo sapiens, HEK293, 96 h, HEK293 expressing ABCC4, CellTiter Glo. As for the experimental part: (§1) HEK293 cells transfected with ABCC4 or ABCC4ΔC in the presence or absence of MPP1, MO7e, and Meg01 cells were treated with 10 concentrations of 6MP, ranging from 1 to 1000 µM, for 96 h. Cell viability analysis was determined using CellTiter Glo (Promega). Where applicable, cell penetrating peptides conjugated to the PDZ-binding motif of ABCC4 (labeled either ABCC4-PDZ or ABCC4ΔC) were added to the cells at 20 μM. Media was changed daily and new ABCC4-PDZ/ABCC4ΔC peptide and 6MP was added. IC50 values were calculated using GraphPad Prism.
On the technique in general: ATP-based viability assays read luminescence as a measure of living cells.

Assay [2] relates to MO7e cells. The assay can be described thus: 6MP cytotoxicity in MO7e cells and CRISPR knock-outs. Format: cell-based, Human. Conditions: for IC50: Homo sapiens, Mo7e, 96 h, CellTiter Glo, triplicate; for decrease of 6MP resistance vs. parental cells: MO7e. The method, then: as §1
CRISPR-Cas9 plasmids containing gRNAs against ABCC4 ([…]) and MPP1 ([…]) were purchased from Sigma Aldrich. MO7e cells were transiently transfected with constructs containing the gRNA, Cas9 Nickase, and a flurophore. Forty-eight hours after transfection, cells were sorted for fluorescent positive cells and single cells were sorted into individual wells of a 96-well plate. Single-sorted cells were allowed to expand and deletion of the gene of interest was verified by immunoblotting.
The Meg01, MO7e, and ABCC4 KO MO7e cell lines were plated at 1500 cells per well in a 96-well plate. Cells were treated with 10 concentrations of Antimycin A (Santa Cruz) ranging from 0.01 to 1000 μM. Cell viability was determined using CellTiter Glo (Promega). Meg01, MO7e, and ABCC4 KO MO7e cells in the presence or absence of 10 nM Antimycin A were treated with 10 concentrations of 6MP, ranging from 1 to 1000 µM, for 96 h. Cell viability analysis was determined using CellTiter Glo. IC50 values were calculated using GraphPad Prism.

Assay [3] relates to MO7e cells. Nature of the assay: Etoposide cytotoxicity in MO7e cells and CRISPR knock-outs. Format: cell-based, Human. Conditions: for IC50: Homo sapiens, Mo7e, triplicate.
Assay [4] deals with HEK293 cells. Nature of the assay: Etoposide cytotoxicity in transfected HEK293 cells. The format is cell-based, Human. The conditions noted are these: for IC50: Homo sapiens, triplicate.
Assay [5] concerns primary AML cells from adult patients. Nature of the assay: Annexin V/PI apoptosis in primary AML patient samples. The format is cell-based, Human. As for the experimental part:
Primary AML cells from adult patients were treated with either vehicle, 50 or 100 µM cytarabine, 10 nM Antimycin A, or the combination of 50 or 100 µM cytarabine + 10 nM Antimycin A for 4 h. Post treatment, the cells were washed with fresh media (2×) and resuspended in the absence or presence of 10 nM Antimycin A and cultured for an additional 44 h (for a total treatment time of 48 h). The cells were then stained with Annexin V-fluorescein isothiocyanate (FITC)/propidium iodide (PI) apoptosis Kit (Beckman Coulter; Brea, CA, USA). The stage of apoptotic cells (Annexin V-positive, but early or late apoptosis) is identified by the proportion of AnnexinV+/PI− (early apoptosis) and Annexin V+/PI+ (late apoptosis) cells. This experiment was performed once in triplicates (presented as average ± SEM) due to the limited sample availability. Patient samples were selected based on the availability of an adequate number of cells to perform the assay.

The subject of assay [6] is ABCC4 plasma membrane localization in HEK293 cells expressing MPP1 and GFP-ABCC4. Nature of the assay: ABCC4 plasma membrane localization (confocal microscopy). Format: cell-based, Human. As for the experimental part: Peptides containing or lacking the ABCC4-PDZ motif were fused with the cell penetrating HIV-TAT peptide. These peptides were tested for their effect on ABCC4 plasma membrane localization. HEK293 cells were transfected with MPP1 and GFP-ABCC4 and the ER protein, calreticulin. The plasma membrane was counter-stained with wheat-germ-agglutinin (WGA) labeled with Alexa647 after treatment with either ABCC4-PDZ or ABCC4ΔC peptide.
HEK293 cells were seeded on chambered coverglass slides (LAB-TEK) 48 h before transfection with plasmid DNA (250 ng) encoding pAc-GFP-ABCC4 or ABCC4ΔC and pCal plasmid encoding the ER resident protein calreticulin conjugated to RFP (Origene). Transfection was performed using Lipofectamine 2000 as per the manufacturer’s instructions. Immediately prior to visualizing cells, cells were counterstained with the plasma membrane marker wheat-germ agglutinin (WGA) conjugated to Alexa-647 (Invitrogen). All confocal microscopy images were acquired on a 3i Marianas system configured with an Yokagowa CSU-X spinning disk confocal microscope utilizing a ×63 Zeiss objective, using the 488 (GFP), 561 (RFP), and 660 (far red) laser lines.

The target of assay [7] is T1, MPP1 and ABCC4 protein interaction (Homo sapiens, UniProt Q00013).
T1 construct: For full-length expression of MPP1, the pTriX vector containing an N-terminal His tag was used to create the His-S-MPP1 fusion protein; made in house; host or cells: E. coli
T1 sequence (Q00013 1-466): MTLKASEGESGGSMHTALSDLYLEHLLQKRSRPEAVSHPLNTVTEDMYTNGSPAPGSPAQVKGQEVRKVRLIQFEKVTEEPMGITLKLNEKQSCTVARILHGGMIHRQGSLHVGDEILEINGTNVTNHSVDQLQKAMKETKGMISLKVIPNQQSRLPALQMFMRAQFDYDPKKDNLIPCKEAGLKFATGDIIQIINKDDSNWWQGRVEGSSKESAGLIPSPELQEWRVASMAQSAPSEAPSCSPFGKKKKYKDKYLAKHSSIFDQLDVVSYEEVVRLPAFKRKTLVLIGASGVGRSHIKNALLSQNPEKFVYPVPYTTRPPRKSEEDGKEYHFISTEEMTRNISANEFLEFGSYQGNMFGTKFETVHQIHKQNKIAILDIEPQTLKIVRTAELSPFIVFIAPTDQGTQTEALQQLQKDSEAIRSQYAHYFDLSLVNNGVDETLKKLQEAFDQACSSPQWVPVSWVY
Nature of the assay: Competition of ABCC4 C-terminal peptides with MPP1–ABCC4 complex (GST-ABCC4-C100 pull-down, immunoblot). The format is biochemical. Conditions: in words; in vitro competition experiment. The method, then:
C-terminal peptides of ABCC4 containing the carboxyl-terminal 15 amino acids ([…]-COOH, ABCC4-PDZ) or carboxyl-terminal 11 amino acids lacking the PDZ-binding motif ([…]-COOH, ABCC4ΔC) conjugated to the cell penetrating peptide TAT ([…]) were chemically synthesized by the Hartwell Center for Bionformatics and Biotechnology at SJCRH. ABCC4 peptides (1–4 μM) were mixed with purified GST-ABCC4-C100 (50 nM) (Supplementary Fig. 10 ) before addition of His-S-MPP1 (3.6 nM) and allowed to mix for 2 h at 24 °C. The GST-ABCC4-C100 was immobilized on glutathione beads, and washed 3 times. Protein complexes were eluted from the beads, separated by SDS-PAGE, and immunoblotted with rabbit anti-MPP1.

Assay [8] concerns MO7e cells. Nature of the assay: 6MP cytotoxicity in MO7e cells and CRISPR knock-outs. The format is cell-based, Human. Conditions: cell permeable peptide (10 μM), in words.
In assay [9] the test system is murine hematopoietic progenitor cells (HPC). Nature of the assay: Hematopoietic progenitor cell serial replating in methylcellulose. The conditions noted are these: HPC transduced with MPP1; cell penetrating peptide, fresh at each replating; n = 3.
Experimental: In these experiments, littermates were used as controls. Bone marrow from 8- to 12-week-old female virgin C57/BL6 mice were harvested. Progenitors were enriched by incubating with lineage-PE antibodies (CD4, CD8, Mac1, Gr1, NK1.1, B220, and Ter119) and separated using AutoMACS Pro (Miltenyi). Hematopoetic progenitor cells were cultured in the presence of recombinant murine SCF (rmSCF), IL3 (rmIL3), and IL6 (rmIL6) (Peprotech; all 50 ng/ml) for 48 h before transduction on RetroNectin (Takara) coated plates. Retroviral supernatant containing media was produced by transient transfection of HEK293T cells with MSCV based retroviral plasmids encoding either MYCN-ires-YFP or MPP1-ires-CFP as previously described[35]. Forty-eight hours post transduction, cells were harvested, sorted for either YFP or CFP expression, and plated on methylcellulose containing IL3, IL6, SCF, and EPO (Stem Cell Technologies). Colonies were counted after 7 days growth at 37 °C, harvested, and replated.
The test system of assay [10] is ABCC4 (MO7e lysates). Nature of the assay: Immunoprecipitation of ABCC4 from MO7e lysates by purified MPP1 fragments. The format is binding, Human. Conditions: purified fragment with MO7e lysates, n = 3, in words. An excerpt: For full-length expression of MPP1, the pTriX vector containing an N-terminal His tag was used to create the His-S-MPP1 fusion protein. Proteins were expressed in E. coli and purified using a nickel column (Supplementary Fig. 9). The production of cDNA constructs containing various defined segments of MPP1 has been described previously. The cDNA fragments containing either the N-terminal domain of MPP1 (amino acids 1–83), the PDZ domain (amino acids 83–160) or the C-terminal domain, containing both the SH3 and GUK domains (amino acids 161–466), were PCR amplified and subcloned into the pGex vector. All clones were fully sequenced to confirm their identity and reading frame. The GST-fusion proteins were purified using a glutathione column.

Usually IC50 stands for the concentration needed to halve the response being measured.

Entries after “also recorded” stand apart in the source; their conditions may differ. Where no end group is shown, it is not given here. Where only a bound is given, the exact number is not on record here.

As for `Sc1ncnc2nc[nH]c12` [6MP, 6-mercaptopurine], the “effect of MPP1 on survival of cells expressing ABCC4 lacking the PDZ motif” value in [1] (HEK293, ABCC4ΔC, in words) is “no additional survival benefit”. In addition, the “increase of 6MP IC50 by ABCC4 expression” value in assay [1] (HEK293 ABCC4 vs. empty vector (Ctrl)) is on record as 2.6 fold. Also, the IC50 in [1] (end of the shift with increasing MPP1 (P < 0.05), 96 h) was found to be 608 µM; in assay [1] (start of the shift with increasing MPP1, 96 h), 184 µM; in assay [2] (MO7e + Antimycin A (10 nM), Fig. 6a) it was 13.6 µM; in assay [2] (MO7e ABCC4 KO + Antimycin A (10 nM), Fig. 6a), 22.2 µM; in assay [2] (MO7e ABCC4 KO, Fig. 4f) it was 27.6 µM; in assay [2] (MO7e DKO (ABCC4 and MPP1), Fig. 4f) it was 10.9 µM. Further, the concentration for half-maximal inhibition (IC50) in assay [2] (MO7e MPP1 KO, Fig. 4f) stood at 27.7 µM; in assay [2] (MO7e parental, Fig. 4f), 135 µM; in [2] (without Antimycin A, Fig. 6a) it was 135 µM. The “decrease of 6MP resistance vs. parental cells” value in assay [2] (MPP1 deletion alone) and in assay [2] (deletion of ABCC4) was “over fourfold” each time.
As to `COc1cc([C@@H]2c3cc4c(cc3[C@@H](O[C@@H]3O[C@@H]5CO[C@@H](C)O[C@H]5[C@H](O)[C@H]3O)[C@H]3COC(=O)[C@H]23)OCO4)cc(OC)c1O` [Etoposide, etoposide], the IC50 stood at 23.9 µM in [3] (MO7e ABCC4 KO); 21.5 µM in assay [3] (MO7e DKO); 20 µM in [3] (MO7e MPP1 KO); 27.2 µM in [3] (MO7e parental); 1.2 µM in [4] (HEK293, HEK293 ABCC4 + MPP1); 1.3 µM in assay [4] (HEK293, HEK293 ABCC4). The 50% inhibitory concentration (IC50) stood at 1.2 µM in assay [4] (HEK293, HEK293 ABCC4ΔC + MPP1); 1.5 µM in assay [4] (HEK293, HEK293 ABCC4ΔC); 1.4 µM in [4] (HEK293, HEK293 Ctrl (empty vector)). Besides, the “etoposide sensitivity of knock-out strains” value in assay [3] (MO7e ABCC4 KO, MPP1 KO, DKO, in words) is recorded as “did not affect etoposide sensitivity; also recorded: equally sensitive to etoposide”. In addition, the “effect of ABCC4 and/or MPP1 on etoposide sensitivity” value in [4] (HEK293, in words) is listed as “not affected by MPP1; also recorded: not affected by the presence of either ABCC4 and/or MPP1”.
Turning to `Nc1ccn([C@@H]2O[C@H](CO)[C@@H](O)[C@@H]2O)c(=O)n1` [cytarabine, cytosine arabinoside], the “cytarabine response of primary AML cells” value in assay [5] (one primary AML patient sample, in culture and in vivo (peer review file)) is reported as “non-responsive”; in assay [5] (the other patient sample (peer review file)), “sensitive”.
With “SNGQPSTLTIF-COOH (YGRKKRRQRRRSNGQPSTLTIF-OH) [ABCC4ΔC]”, the “ABCC4 remaining at the membrane” value in assay [6] (cell penetrating peptide (TAT fused; 10 μM in Supplementary Fig. 4), n = 20 fields of view) is reported as above 80%. Also, in assay [6] (in words, confocal microscopy), the “effect on ABCC4 plasma membrane localization” value was “ineffective in relocalizing ABCC4”. Moreover, the “effect of peptide on 6MP IC50” value in assay [1] (HEK293 co-expressing ABCC4 and MPP1, cell penetrating peptide (20 μM in methods; various amounts), 96 h, in words) is listed as “without effect; also recorded: no effect on 6MP IC50 values”. In addition, the “disruption of the MPP1 and ABCC4 protein interaction” value in [7] was “incapable of disrupting the MPP1 and ABCC4 protein interaction”. Besides, the “effect of peptide on 6MP sensitivity” value in assay [8] is listed as “had no effect”. Also, in assay [9], the “effect on MPP1-driven methylcellulose replating” value is recorded as “incapable of suppressing MPP1-stimulated replating”.

B1: SH3 and GUK domain: SH3 and GUK domain of MPP1 (amino acids 162–466) (protein, UniProt Q00013 162-466, looked up, fragment)
chain: FMRAQFDYDPKKDNLIPCKEAGLKFATGDIIQIINKDDSNWWQGRVEGSSKESAGLIPSPELQEWRVASMAQSAPSEAPSCSPFGKKKKYKDKYLAKHSSIFDQLDVVSYEEVVRLPAFKRKTLVLIGASGVGRSHIKNALLSQNPEKFVYPVPYTTRPPRKSEEDGKEYHFISTEEMTRNISANEFLEFGSYQGNMFGTKFETVHQIHKQNKIAILDIEPQTLKIVRTAELSPFIVFIAPTDQGTQTEALQQLQKDSEAIRSQYAHYFDLSLVNNGVDETLKKLQEAFDQACSSPQWVPVSWVY
Turning to B1, the “immunoprecipitation of ABCC4” value in assay [10] is on record as “incapable of immunoprecipitating ABCC4”.

B2: MPP1 N terminus: MPP1 N terminus, up to the PDZ domain (amino acids 1–83) (protein, UniProt Q00013 1-83, looked up, fragment)
chain: MTLKASEGESGGSMHTALSDLYLEHLLQKRSRPEAVSHPLNTVTEDMYTNGSPAPGSPAQVKGQEVRKVRLIQFEKVTEEPMG
Turning to B2, in assay [10], the “immunoprecipitation of ABCC4” value is listed as “incapable of immunoprecipitating ABCC4”.

Source of the values: article PMC5691054, “An unexpected protein interaction promotes drug resistance in leukemia” (Nature Communications, 2017).
